In brackets after ≈: the same amount, converted by molar mass. Several values for one entry are separate records, joined by “and”; a condition that tells them apart may be missing. Equal entries are not always repeated. Where two headings read alike, the source gives them in different places.
Key:
murine PDXP = target: T1, murine PDXP (Mus musculus, UniProt P60487); assay: PDXP activity towards pyridoxal 5'-phosphate (PLP); conditions: phosphatase PDXP; species M.m.; substrate PLP; n.s. = no significant inhibition detectable
T1 sequence (P60487 1-292): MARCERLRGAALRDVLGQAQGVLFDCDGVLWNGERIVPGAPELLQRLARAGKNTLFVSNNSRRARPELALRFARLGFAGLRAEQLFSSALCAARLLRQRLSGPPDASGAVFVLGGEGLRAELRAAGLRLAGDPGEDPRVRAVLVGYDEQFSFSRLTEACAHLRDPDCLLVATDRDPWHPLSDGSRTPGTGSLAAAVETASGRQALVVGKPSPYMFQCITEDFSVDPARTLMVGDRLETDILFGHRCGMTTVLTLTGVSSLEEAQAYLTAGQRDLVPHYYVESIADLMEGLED

murine PDXP/PGP hybrid = target: T2, murine PDXP/PGP hybrid (Mus musculus, UniProt P60487+Q8CHP8); assay: PG dephosphorylation by PDXP/PGP hybrid protein; assay type: biochemical
T2 construct: consisting of the PGP cap domain (amino acids 114–233) fused to the PDXP core domain; His6 (N, cleaved yes); made in house; host or cells: Escherichia coli BL21 (DE3), pETM11
T2 sequence (P60487 1-100): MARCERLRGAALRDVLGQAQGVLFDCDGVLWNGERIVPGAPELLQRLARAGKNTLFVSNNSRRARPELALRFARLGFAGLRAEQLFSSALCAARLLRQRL
T2 sequence (Q8CHP8 114-233): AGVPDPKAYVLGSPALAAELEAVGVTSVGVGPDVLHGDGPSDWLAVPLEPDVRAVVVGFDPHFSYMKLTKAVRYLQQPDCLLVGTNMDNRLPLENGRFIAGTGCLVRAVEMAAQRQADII
T2 sequence (P60487 208-292): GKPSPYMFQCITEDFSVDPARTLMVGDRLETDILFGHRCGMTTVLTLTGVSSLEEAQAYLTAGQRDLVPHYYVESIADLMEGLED
Protocol: After centrifugation, cells were resuspended in TNM-2 (100 mM triethanolamine, 500 mM NaCl, 20 mM imidazole, 5 mM MgCl2; pH 7.4). Cleared supernatants were loaded on a HisTrap HP nickel sepharose column in TNM-3 (50 mM triethanolamine, 500 mM NaCl, 20 mM imidazole, 5 mM MgCl2; pH 7.4), and His6-tagged proteins were eluted using a linear gradient of up to 50% TNM-4 (50 mM triethanolamine; 250 mM NaCl; 500 mM imidazole; 5 mM MgCl2; pH 7.4). Peak fractions were pooled, the His6-tag was cleaved, and untagged PDXP or PDXP/PGP was isolated, concentrated and further purified by size exclusion chromatography in TNM-5 (50 mM triethanolamine; 250 mM NaCl; 5 mM MgCl2; pH 7.4). […] Data were analyzed with GraphPad Prism 7.04.

PGP = target: T3, PGP (Mus musculus, UniProt Q8CHP8); assay: Steady state kinetics of PG dephosphorylation in presence of CP1-3
T3 sequence (Q8CHP8 1-321): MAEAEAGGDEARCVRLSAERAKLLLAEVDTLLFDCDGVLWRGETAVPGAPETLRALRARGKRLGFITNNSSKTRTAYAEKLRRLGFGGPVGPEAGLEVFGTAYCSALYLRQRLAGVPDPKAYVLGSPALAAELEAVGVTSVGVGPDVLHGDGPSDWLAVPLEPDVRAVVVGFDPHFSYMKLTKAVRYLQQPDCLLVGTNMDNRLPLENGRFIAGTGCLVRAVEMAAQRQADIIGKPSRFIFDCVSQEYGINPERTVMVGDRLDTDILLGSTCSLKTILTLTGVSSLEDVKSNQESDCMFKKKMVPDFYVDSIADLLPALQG

murine PGP [1] = target: T4, murine PGP (Mus musculus, UniProt Q8CHP8); assay: IC50 determination, murine PGP, pNPP dephosphorylation
T4 sequence (Q8CHP8 1-321): T3 sequence (Q8CHP8 1-321)

physchem = conditions: organic solvent or mixture
PGP^WT = target: T5, PGP^WT (Mus musculus, UniProt Q8CHP8); assay: Differential scanning fluorimetry (Thermofluor); assay type: binding
T5 construct: His6 (N, cleaved yes); made in house; host or cells: Escherichia coli BL21 (DE3), pETM11, co-expressed with groES-groEL-tig
T5 sequence (Q8CHP8 1-321): T3 sequence (Q8CHP8 1-321)

murine PGP [2] = target: T4, murine PGP; assay: biochemical
murine PGP-WT = target: T6, murine PGP-WT (Mus musculus, UniProt Q8CHP8); assay: Isothermal titration calorimetry, PGP-WT; assay type: binding; conditions: ITC; for Kd: murine PGP
T6 construct: His6 (N, cleaved yes); made in house; host or cells: Escherichia coli BL21 (DE3), pETM11, co-expressed with groES-groEL-tig
T6 sequence (Q8CHP8 1-321): T3 sequence (Q8CHP8 1-321)
Protocol: Purified murine PGP-WT or PGP-P127E was dialyzed overnight against ITC buffer (30 mM HEPES, 30 mM NaCl, 5 mM MgCl2, 1 mM tris(2-carboxyethyl)phosphine/TCEP; pH 7.5). All calorimetric measurements were performed at 25 °C on an ITC200 microcalorimeter (GE Healthcare). Experiments were conducted with a fixed concentration of 2% DMSO. […] To reduce the effects of ligand leakage from the syringe during baseline equilibration, the heat release of a single 1.2 μL injection was recorded prior to the actual titration experiment, and discarded during data analysis with Nitpic 2.0.7[45]. To determine background heats of dilution, control experiments of ligand into buffer, buffer into protein and buffer into buffer titrations were performed.

[3] = PG dephosphorylation, increasing CP concentrations

O=C(Nc1ccccc1C(=O)O)c1ccc(Oc2ccc(C(=O)Nc3ccccc3C(=O)O)cc2)cc1 [CP1]
IC50 (murine PDXP): n.s.
remaining activity at 16 µM (murine PDXP/PGP hybrid; activity, control = 100, CP log[M] -4.79588): 22%
remaining activity at 4 µM (murine PDXP/PGP hybrid; activity, control = 100, CP log[M] -5.39794): 59.9%
remaining activity at 2 µM (murine PDXP/PGP hybrid; activity, control = 100, CP log[M] -5.69897): 72%
remaining activity at 1 µM (murine PDXP/PGP hybrid; activity, control = 100, CP log[M] -6): 77.3%
remaining activity at 0.5 µM (murine PDXP/PGP hybrid; activity, control = 100, CP log[M] -6.30103): 82.6%
remaining activity at […] (murine PDXP/PGP hybrid; activity, control = 100, CP log[M] -6.60206): 92.4%
remaining activity at 0.125 µM (murine PDXP/PGP hybrid; activity, control = 100, CP log[M] -6.90309): 90.9%
remaining activity at 0.0625 µM (murine PDXP/PGP hybrid; activity, control = 100, CP log[M] -7.20412): 93.9%
remaining activity at 0.015625 µM (murine PDXP/PGP hybrid; activity, control = 100, CP log[M] -7.80618): 101%
IC50 (murine PDXP/PGP hybrid; phosphatase PDXP/PGP, species M.m., substrate PG): 13.8 ± 1.43 µM
mode of PGP inhibition (PGP): mixed mode of inhibition
PGP activity (PGP; 0,5 µM CP1, PG 50 µM): 1.261 µmol Pi/min/mg and 1.442 µmol Pi/min/mg
PGP activity (PGP; 0,5 µM CP1, PG 100 µM): 3.424 µmol Pi/min/mg and 4.325 µmol Pi/min/mg and 3.784 µmol Pi/min/mg
PGP activity (PGP; 0,5 µM CP1, PG 200 µM): 7.208 µmol Pi/min/mg and 7.809 µmol Pi/min/mg and 7.689 µmol Pi/min/mg
PGP activity (PGP; 0,5 µM CP1, PG 300 µM): 11.5358 µmol Pi/min/mg and 12.2568 µmol Pi/min/mg and 11.716 µmol Pi/min/mg
PGP activity (PGP; 0,5 µM CP1, PG 400 µM): 14.0592 µmol Pi/min/mg and 13.5185 µmol Pi/min/mg
PGP activity (PGP; 0,5 µM CP1, PG 500 µM): 16.5827 µmol Pi/min/mg and 16.763 µmol Pi/min/mg and 16.2222 µmol Pi/min/mg
PGP activity (PGP; 0,5 µM CP1, PG 600 µM): 17.6642 µmol Pi/min/mg and 17.3037 µmol Pi/min/mg and 17.4839 µmol Pi/min/mg
PGP activity (PGP; 0,5 µM CP1, PG 700 µM): 19.4667 µmol Pi/min/mg and 20.1876 µmol Pi/min/mg and 19.2864 µmol Pi/min/mg
PGP activity (PGP; 0,5 µM CP1, PG 800 µM): 18.0247 µmol Pi/min/mg and 18.9259 µmol Pi/min/mg and 20.0074 µmol Pi/min/mg
PGP activity (PGP; 1 µM CP1, PG 50 µM): 1.382 µmol Pi/min/mg and 0.901 µmol Pi/min/mg and 0.7809 µmol Pi/min/mg
PGP activity (PGP; 1 µM CP1, PG 100 µM): 2.763 µmol Pi/min/mg and 2.222 µmol Pi/min/mg and 2.403 µmol Pi/min/mg
PGP activity (PGP; 1 µM CP1, PG 200 µM): 4.805 µmol Pi/min/mg and 4.745 µmol Pi/min/mg and 4.625 µmol Pi/min/mg
PGP activity (PGP; 1 µM CP1, PG 300 µM): 7.751 µmol Pi/min/mg and 7.57 µmol Pi/min/mg and 7.39 µmol Pi/min/mg
PGP activity (PGP; 1 µM CP1, PG 400 µM): 9.373 µmol Pi/min/mg and 8.4716 µmol Pi/min/mg and 9.012 µmol Pi/min/mg
PGP activity (PGP; 1 µM CP1, PG 500 µM): 11.1753 µmol Pi/min/mg and 10.6346 µmol Pi/min/mg and 10.9951 µmol Pi/min/mg
PGP activity (PGP; 1 µM CP1, PG 600 µM): 12.437 µmol Pi/min/mg and 11.8963 µmol Pi/min/mg and 13.158 µmol Pi/min/mg
PGP activity (PGP; 1 µM CP1, PG 700 µM): 13.879 µmol Pi/min/mg and 12.7975 µmol Pi/min/mg
PGP activity (PGP; 1 µM CP1, PG 800 µM): 14.0592 µmol Pi/min/mg and 13.6988 µmol Pi/min/mg and 12.9778 µmol Pi/min/mg
PGP activity (PGP; 2 µM CP1, PG 50 µM): 0.6007 µmol Pi/min/mg and 1.021 µmol Pi/min/mg and 0.5406 µmol Pi/min/mg
PGP activity (PGP; 2 µM CP1, PG 100 µM): 1.562 µmol Pi/min/mg and 1.862 µmol Pi/min/mg and 1.201 µmol Pi/min/mg
PGP activity (PGP; 2 µM CP1, PG 200 µM): 2.703 µmol Pi/min/mg and 2.643 µmol Pi/min/mg
PGP activity (PGP; 2 µM CP1, PG 300 µM): 4.867 µmol Pi/min/mg and 5.227 µmol Pi/min/mg and 5.588 µmol Pi/min/mg
PGP activity (PGP; 2 µM CP1, PG 400 µM): 6.309 µmol Pi/min/mg and 6.128 µmol Pi/min/mg and 5.948 µmol Pi/min/mg
PGP activity (PGP; 2 µM CP1, PG 500 µM): 7.57 µmol Pi/min/mg and 7.03 µmol Pi/min/mg and 7.21 µmol Pi/min/mg
PGP activity (PGP; 2 µM CP1, PG 600 µM): 7.751 µmol Pi/min/mg and 7.931 µmol Pi/min/mg
PGP activity (PGP; 2 µM CP1, PG 700 µM): 7.57 µmol Pi/min/mg and 9.012 µmol Pi/min/mg and 8.291 µmol Pi/min/mg
PGP activity (PGP; 2 µM CP1, PG 800 µM): 6.849 µmol Pi/min/mg and 8.4716 µmol Pi/min/mg and 8.291 µmol Pi/min/mg
vmax (PGP; CP 0.5 µM): 39.9 ± 2.9 µmol/min/mg
vmax (PGP; CP 1.0 µM): 33.6 ± 3.0 µmol/min/mg
vmax (PGP; CP 2.0 µM): 17.1 ± 2.1 µmol/min/mg
effect on vmax (reduction) (PGP; [3]): ~ 3 fold
increase of KM (PGP; [3]): ~ 3 fold
IC50 (murine PGP [1]): 770 ± 50 nM
remaining activity at 25 µM (murine PGP [1]; read-out: M.m PGP on pNPP, activity, control = 100.00, CP log[M] -4.60206): 3.52%
remaining activity at 10 µM (murine PGP [1]; read-out: M.m PGP on pNPP, activity, control = 100.00, CP log[M] -5): 6.83%
remaining activity at […] (murine PGP [1]; read-out: M.m PGP on pNPP, activity, control = 100.00, CP log[M] -5.60206): 23.4%
remaining activity at 1 µM (murine PGP [1]; read-out: M.m PGP on pNPP, activity, control = 100.00, CP log[M] -6): 47.8%
remaining activity at 0.5 µM (murine PGP [1]; read-out: M.m PGP on pNPP, activity, control = 100.00, CP log[M] -6.30103): 65%
remaining activity at […] (murine PGP [1]; read-out: M.m PGP on pNPP, activity, control = 100.00, CP log[M] -6.60206): 85%
remaining activity at 0.125 µM (murine PGP [1]; read-out: M.m PGP on pNPP, activity, control = 100.00, CP log[M] -6.90309): 91.3%
remaining activity at 0.0625 µM (murine PGP [1]; read-out: M.m PGP on pNPP, activity, control = 100.00, CP log[M] -7.20412): 99.4%
remaining activity at 0.03125 µM (murine PGP [1]; read-out: M.m PGP on pNPP, activity, control = 100.00, CP log[M] -7.50515): 100%
solubility (physchem): 100 mM (≈ 49.6 mg/mL)
TM (PGP^WT; Inhibitor 0.244141 µM): 66.6 °C
TM (PGP^WT; Inhibitor 0.488281 µM): 66.6 °C
TM (PGP^WT; Inhibitor 0.976562 µM): 66.8 °C
TM (PGP^WT; Inhibitor 1.95312 µM): 67.0 °C
TM (PGP^WT; Inhibitor 3.90625 µM): 67.7 °C
TM (PGP^WT; Inhibitor 7.8125 µM): 68.6 °C
TM (PGP^WT; Inhibitor 15.625 µM): 69.6 °C
TM (PGP^WT; Inhibitor 31.25 µM): 70.5 °C
TM (PGP^WT; Inhibitor 62.5 µM): 71.0 °C
TM (PGP^WT; Inhibitor 125 µM): 71.0 °C
TM (PGP^WT; Inhibitor 250 µM): 70.1 °C
increase in the maximal PGP melting temperature (PGP^WT; from 66.4 °C (control conditions)): 4.6 °
IC50 (murine PGP [2]): 370 nM and 400 nM
Kd (murine PGP-WT; 25 °C, mean ± S.E.M., n = 3): 780 nM
Kd (murine PGP-WT; single replicates): 850 nM and 790 nM and 710 nM
dG (murine PGP-WT; single replicates): -8.282 kcal/mol and -8.325 kcal/mol and -8.393 kcal/mol
dH (murine PGP-WT; single replicates): -5.583 kcal/mol and -4.903 kcal/mol and -5.696 kcal/mol
dS (murine PGP-WT; single replicates): 9.052 cal/Mol*K and 11.478 cal/Mol*K and 9.044 cal/Mol*K

Reference: article PMC9652372, “Glycolytic flux control by drugging phosphoglycolate phosphatase” (Nature Communications, 2022)
